Assay results taken from ChEMBL document CHEMBL4414679, “Discovery of 4,6-pyrimidinediamine derivatives as novel dual EGFR/FGFR inhibitors aimed EGFR/FGFR1-positive NSCLC” (Eur J Med Chem, 2020).
pIC50: −log10 of the molar value. The source made the active and inactive calls. The calls are words filed in the database; no cut-off is given here.

Key:
NCI-H226 [1] = assay: Antiproliferative activity against human NCI-H226 cells assessed as inhibition of cell growth at 10 uM incubated for 48 hrs by MTT assay relative to control; type: functional; conditions: NCI-H226, 48 h
PC-9 [2] = assay: Antiproliferative activity against human PC9 cells assessed as inhibition of cell growth at 10 uM incubated for 48 hrs by MTT assay relative to control; type: functional; conditions: PC-9, 48 h
HCC827 [3] = assay: Antiproliferative activity against human HCC827 cells assessed as inhibition of cell growth at 10 uM incubated for 48 hrs by MTT assay relative to control; type: functional; conditions: HCC827, 48 h
[4] = target: T1, Fibroblast growth factor receptor 1 (Homo sapiens, UniProt P11362); conditions: 10 uM
Target sequence in this assay (P11362 22-822 limits assumed): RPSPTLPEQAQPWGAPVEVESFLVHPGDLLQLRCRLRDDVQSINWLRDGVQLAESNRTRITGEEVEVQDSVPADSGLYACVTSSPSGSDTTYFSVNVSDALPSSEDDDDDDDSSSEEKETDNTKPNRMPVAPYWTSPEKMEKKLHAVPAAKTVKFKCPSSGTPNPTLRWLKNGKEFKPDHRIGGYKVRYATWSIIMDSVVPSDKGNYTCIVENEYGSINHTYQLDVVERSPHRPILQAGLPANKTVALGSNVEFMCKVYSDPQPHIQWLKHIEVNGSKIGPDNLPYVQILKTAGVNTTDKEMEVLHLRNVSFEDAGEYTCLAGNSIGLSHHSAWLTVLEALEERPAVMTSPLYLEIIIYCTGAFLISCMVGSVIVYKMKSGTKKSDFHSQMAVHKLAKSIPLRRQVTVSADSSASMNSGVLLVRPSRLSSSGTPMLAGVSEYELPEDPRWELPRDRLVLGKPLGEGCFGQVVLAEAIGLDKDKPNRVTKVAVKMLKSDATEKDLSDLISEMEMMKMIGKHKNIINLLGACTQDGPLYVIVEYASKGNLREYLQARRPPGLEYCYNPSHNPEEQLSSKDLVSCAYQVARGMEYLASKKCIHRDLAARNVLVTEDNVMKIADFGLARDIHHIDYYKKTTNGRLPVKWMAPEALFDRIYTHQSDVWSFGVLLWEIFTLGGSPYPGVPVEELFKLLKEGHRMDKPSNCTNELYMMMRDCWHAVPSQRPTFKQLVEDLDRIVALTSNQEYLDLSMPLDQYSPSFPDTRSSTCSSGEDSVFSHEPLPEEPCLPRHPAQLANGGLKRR
Description: Inhibition of FGFR in serum-starved human H520 cells assessed as reduction in FGFR-induced AKT phosphorylation at 10 uM incubated for 1 hr by Western blot analysis

NCI-H520 [5] = assay: Antiproliferative activity against human NCI-H520 cells assessed as inhibition of cell growth at 10 uM incubated for 48 hrs by MTT assay relative to control; type: functional; conditions: NCI-H520, 48 h
[6] = target: T1, Fibroblast growth factor receptor 1; conditions: 10 uM; remark: listed apart in the source
Target sequence in this assay (P11362 22-822 limits assumed): as above
Description: Inhibition of FGF-induced FGFR1 phosphorylation in serum-starved human H520 cells at 10 uM incubated for 1 hr by Western blot analysis

NCI-H1581 [7] = assay: Antiproliferative activity against human NCI-H1581 cells assessed as inhibition of cell growth at 10 uM incubated for 48 hrs by MTT assay relative to control; type: functional; conditions: NCI-H1581, 48 h
[8] = target: T2, Epidermal growth factor receptor (Homo sapiens, UniProt P00533); assay: Inhibition of N-terminal GST-tagged human EGFR cytoplasmic domain (669-1210 AA) expressed in baculovirus using FAM-labelled peptide as substrate pre-incubated for 10 mins followed by substrate addition by mobility shift assay
PC-9 [9] = assay: Antiproliferative activity against human PC9 cells incubated for 48 hrs by MTT assay; type: functional, cell-based; conditions: PC-9, 48 h
[10] = target: T2, Epidermal growth factor receptor; assay: Inhibition of N-terminal GST-tagged human EGFR (d746-750AA) expressed in baculovirus using FAM-labelled peptide as substrate pre-incubated for 10 mins followed by substrate addition by mobility shift assay
NCI-H520 [11] = assay: Antiproliferative activity against human NCI-H520 cells incubated for 48 hrs by MTT assay; type: functional, cell-based; conditions: NCI-H520, 48 h
[12] = target: T1, Fibroblast growth factor receptor 1; assay: Inhibition of N-terminal GST-tagged human FGFR1 cytoplasmic domain (398-822 AA) expressed in baculovirus using FAM-labelled peptide as substrate pre-incubated for 10 mins followed by substrate addition by mobility shift assay
NCI-H1581 [13] = assay: Antiproliferative activity against human NCI-H1581 cells incubated for 48 hrs by MTT assay; type: functional, cell-based; conditions: NCI-H1581, 48 h
[14] = test system: Epidermal growth factor receptor (Homo sapiens), P00533 [L858R]; assay: Inhibition of recombinant human EGFR L858R mutant expressed in baculovirus at 10 uM using FAM-labelled peptide as substrate pre-incubated for 10 mins followed by substrate addition by mobility shift assay relative to control
NCI-H226 [15] = assay: Antiproliferative activity against human NCI-H226 cells incubated for 48 hrs by MTT assay; type: functional, cell-based; conditions: NCI-H226, 48 h
[16] = target: T1, Fibroblast growth factor receptor 1; assay: Inhibition of N-terminal GST-tagged human FGFR1 cytoplasmic domain (398-822 AA) expressed in baculovirus at 10 uM using FAM-labelled peptide as substrate pre-incubated for 10 mins followed by substrate addition by mobility shift assay relative to control
Target sequence in this assay (P11362 22-822 limits assumed): as above

[17] = target: Epidermal growth factor receptor (Homo sapiens, UniProt P00533, L858R); assay: Inhibition of recombinant human EGFR L858R mutant expressed in baculovirus using FAM-labelled peptide as substrate pre-incubated for 10 mins followed by substrate addition by mobility shift assay
[18] = target: T2, Epidermal growth factor receptor; assay: Inhibition of N-terminal GST-tagged human EGFR (d746-750AA) expressed in baculovirus at 10 uM using FAM-labelled peptide as substrate pre-incubated for 10 mins followed by substrate addition by mobility shift assay relative to control
HCC827 [19] = assay: Antiproliferative activity against human HCC827 cells incubated for 48 hrs by MTT assay; type: functional, cell-based; conditions: HCC827, 48 h
[20] = target: T2, Epidermal growth factor receptor; assay: Inhibition of N-terminal GST-tagged human EGFR cytoplasmic domain (669-1210 AA) expressed in baculovirus at 10 uM using FAM-labelled peptide as substrate pre-incubated for 10 mins followed by substrate addition by mobility shift assay relative to control

T2 sequence (P00533 whole entry, the tested form may be a part): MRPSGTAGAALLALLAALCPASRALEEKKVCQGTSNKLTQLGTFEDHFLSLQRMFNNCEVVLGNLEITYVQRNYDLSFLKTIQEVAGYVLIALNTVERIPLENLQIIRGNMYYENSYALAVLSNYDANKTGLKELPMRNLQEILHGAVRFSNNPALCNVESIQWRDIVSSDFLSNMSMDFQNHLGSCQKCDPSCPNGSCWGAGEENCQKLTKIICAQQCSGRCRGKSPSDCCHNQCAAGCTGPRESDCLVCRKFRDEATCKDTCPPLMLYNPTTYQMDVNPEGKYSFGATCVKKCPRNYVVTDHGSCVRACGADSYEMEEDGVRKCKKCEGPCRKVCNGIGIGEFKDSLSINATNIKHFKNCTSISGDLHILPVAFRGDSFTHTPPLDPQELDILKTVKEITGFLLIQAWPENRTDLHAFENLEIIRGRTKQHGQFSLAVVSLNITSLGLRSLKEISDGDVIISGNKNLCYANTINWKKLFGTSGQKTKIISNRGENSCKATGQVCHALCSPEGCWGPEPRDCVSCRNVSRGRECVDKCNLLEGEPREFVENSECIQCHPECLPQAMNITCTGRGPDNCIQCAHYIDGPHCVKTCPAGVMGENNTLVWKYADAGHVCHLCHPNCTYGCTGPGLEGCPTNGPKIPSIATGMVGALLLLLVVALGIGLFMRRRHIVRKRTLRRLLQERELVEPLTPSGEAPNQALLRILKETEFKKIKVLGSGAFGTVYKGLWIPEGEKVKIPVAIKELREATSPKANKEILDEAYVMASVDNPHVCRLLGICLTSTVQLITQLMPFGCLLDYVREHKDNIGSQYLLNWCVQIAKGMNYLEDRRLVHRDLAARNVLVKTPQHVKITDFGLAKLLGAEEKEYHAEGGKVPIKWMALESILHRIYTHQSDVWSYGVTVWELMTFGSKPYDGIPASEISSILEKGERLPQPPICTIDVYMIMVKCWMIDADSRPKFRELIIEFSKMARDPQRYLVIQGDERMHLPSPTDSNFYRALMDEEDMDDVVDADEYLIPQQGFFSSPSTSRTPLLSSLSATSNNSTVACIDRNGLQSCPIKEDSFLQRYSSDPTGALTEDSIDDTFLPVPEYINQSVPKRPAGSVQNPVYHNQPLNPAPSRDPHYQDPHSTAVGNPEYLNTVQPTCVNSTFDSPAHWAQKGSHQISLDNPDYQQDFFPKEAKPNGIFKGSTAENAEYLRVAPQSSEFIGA
Sequence of Epidermal growth factor receptor (Homo sapiens), P00533 [L858R] (P00533 whole entry L858R): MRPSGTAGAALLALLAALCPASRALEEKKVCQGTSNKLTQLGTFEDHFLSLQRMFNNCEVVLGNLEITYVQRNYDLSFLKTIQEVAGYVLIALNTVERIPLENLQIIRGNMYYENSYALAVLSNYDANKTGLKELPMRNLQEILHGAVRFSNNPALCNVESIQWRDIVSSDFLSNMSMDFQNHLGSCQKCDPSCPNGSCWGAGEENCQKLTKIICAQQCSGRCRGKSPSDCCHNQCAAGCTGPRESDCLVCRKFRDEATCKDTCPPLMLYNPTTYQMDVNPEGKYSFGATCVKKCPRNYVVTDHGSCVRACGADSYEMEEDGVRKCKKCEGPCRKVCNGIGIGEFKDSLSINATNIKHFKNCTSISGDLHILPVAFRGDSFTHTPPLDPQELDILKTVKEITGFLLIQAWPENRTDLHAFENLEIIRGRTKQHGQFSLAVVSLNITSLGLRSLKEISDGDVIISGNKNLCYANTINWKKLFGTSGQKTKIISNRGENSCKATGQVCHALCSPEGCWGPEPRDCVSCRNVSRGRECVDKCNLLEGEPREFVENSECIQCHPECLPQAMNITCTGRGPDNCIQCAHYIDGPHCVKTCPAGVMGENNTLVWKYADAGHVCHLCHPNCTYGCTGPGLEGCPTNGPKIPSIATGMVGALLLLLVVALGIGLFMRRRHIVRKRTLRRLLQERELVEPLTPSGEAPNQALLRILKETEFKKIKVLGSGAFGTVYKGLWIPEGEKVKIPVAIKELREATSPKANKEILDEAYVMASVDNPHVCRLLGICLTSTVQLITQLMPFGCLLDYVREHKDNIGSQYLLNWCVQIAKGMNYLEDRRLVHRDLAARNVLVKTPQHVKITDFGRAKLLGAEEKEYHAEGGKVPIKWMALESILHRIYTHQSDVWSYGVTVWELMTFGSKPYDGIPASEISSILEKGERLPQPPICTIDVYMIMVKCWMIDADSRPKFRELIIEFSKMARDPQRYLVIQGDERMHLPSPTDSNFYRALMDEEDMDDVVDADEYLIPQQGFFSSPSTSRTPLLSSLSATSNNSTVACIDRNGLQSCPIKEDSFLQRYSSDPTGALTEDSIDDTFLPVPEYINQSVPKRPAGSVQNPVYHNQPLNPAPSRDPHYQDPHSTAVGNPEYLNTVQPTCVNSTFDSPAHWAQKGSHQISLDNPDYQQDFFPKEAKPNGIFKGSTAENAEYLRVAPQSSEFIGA
Sequence of Epidermal growth factor receptor (Homo sapiens, UniProt P00533, L858R) (P00533 25-1210 L858R limits assumed): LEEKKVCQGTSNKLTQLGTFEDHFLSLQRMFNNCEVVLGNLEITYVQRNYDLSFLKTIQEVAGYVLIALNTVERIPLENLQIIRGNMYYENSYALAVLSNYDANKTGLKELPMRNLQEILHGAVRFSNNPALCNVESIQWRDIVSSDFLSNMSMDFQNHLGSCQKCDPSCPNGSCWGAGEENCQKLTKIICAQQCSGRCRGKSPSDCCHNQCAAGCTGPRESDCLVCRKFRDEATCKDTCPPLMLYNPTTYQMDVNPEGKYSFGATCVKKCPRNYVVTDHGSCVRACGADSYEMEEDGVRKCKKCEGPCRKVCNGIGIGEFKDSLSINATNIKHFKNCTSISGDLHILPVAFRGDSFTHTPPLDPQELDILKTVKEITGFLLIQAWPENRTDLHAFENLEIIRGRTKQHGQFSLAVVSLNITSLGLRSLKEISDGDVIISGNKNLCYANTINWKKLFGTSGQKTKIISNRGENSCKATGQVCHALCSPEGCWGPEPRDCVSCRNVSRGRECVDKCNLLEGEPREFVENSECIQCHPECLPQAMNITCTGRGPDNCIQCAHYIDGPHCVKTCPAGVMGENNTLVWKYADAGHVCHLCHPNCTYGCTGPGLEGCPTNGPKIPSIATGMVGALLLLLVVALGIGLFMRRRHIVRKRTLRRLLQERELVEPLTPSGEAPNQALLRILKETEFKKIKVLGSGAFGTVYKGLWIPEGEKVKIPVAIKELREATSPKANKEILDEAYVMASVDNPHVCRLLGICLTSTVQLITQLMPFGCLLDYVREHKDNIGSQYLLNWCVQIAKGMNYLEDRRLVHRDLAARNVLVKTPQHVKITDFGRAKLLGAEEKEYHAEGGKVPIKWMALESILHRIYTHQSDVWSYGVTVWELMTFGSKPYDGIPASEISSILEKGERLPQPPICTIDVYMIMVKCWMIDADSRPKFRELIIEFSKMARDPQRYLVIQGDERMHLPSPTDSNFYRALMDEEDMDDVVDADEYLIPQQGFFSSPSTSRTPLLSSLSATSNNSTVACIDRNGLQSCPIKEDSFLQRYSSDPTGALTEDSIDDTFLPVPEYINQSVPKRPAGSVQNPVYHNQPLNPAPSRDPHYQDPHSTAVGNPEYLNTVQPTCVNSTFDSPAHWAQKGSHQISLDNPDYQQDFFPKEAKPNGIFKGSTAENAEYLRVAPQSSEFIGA

`CCN1CCN(c2ccc(Nc3cc(N(C)C(=O)Nc4c(Cl)c(OC)cc(OC)c4Cl)ncn3)cc2)CC1` [INFIGRATINIB] was tested, and the inhibition at 10 µM (NCI-H226 [1]) was 67.3%, the inhibition at 10 µM (PC-9 [2]) was 55.5% and the inhibition at 10 µM (HCC827 [3]) was 32%. The inhibition [4] was “Active”, the inhibition at 10 µM (NCI-H520 [5]) was 77.1% and the inhibition [6] was “Active”. It also gave an inhibition at 10 µM (NCI-H1581 [7]) of 83.7%.
For `COc1cc(Nc2cc(NC(=O)Nc3c(Cl)cccc3Cl)ncn2)cc(OC)c1`, the inhibition at 10 µM (NCI-H226 [1]) was 60%, the pIC50 [8] was 6.50 and the pIC50 (PC-9 [9]) was 5.50. For the same compound, the inhibition at 10 µM (PC-9 [2]) was 90%, the inhibition at 10 µM (HCC827 [3]) was 73.7% and the pIC50 [10] was 6.48. For the same compound, the pIC50 (NCI-H520 [11]) was 4.98, the pIC50 [12] was 5.96 and the pIC50 (NCI-H1581 [13]) was 5.27. The inhibition [14] was 79.4%, the pIC50 (NCI-H226 [15]) was 4.77 and the inhibition at 10 µM (NCI-H520 [5]) was 55.5%. The inhibition [16] was 74.2%, the pIC50 [17] was 6.31 and the inhibition [18] was 84.2%. It also gave a pIC50 (HCC827 [19]) of 4.88, an inhibition [20] of 87.3% and an inhibition at 10 µM (NCI-H1581 [7]) of 68%.
In the case of `Cc1cc(F)cc(Nc2cc(NC(=O)Nc3c(Cl)cccc3Cl)ncn2)c1`, the inhibition at 10 µM (NCI-H226 [1]) was 78.1%, the pIC50 [8] was 6.28 and the pIC50 (PC-9 [9]) was 5.55. For the same compound, the inhibition at 10 µM (PC-9 [2]) was 80%, the inhibition at 10 µM (HCC827 [3]) was 49.1% and the pIC50 [10] was 6.60. It also gave a pIC50 (NCI-H520 [11]) of 5.42, a pIC50 [12] of 5.91 and a pIC50 (NCI-H1581 [13]) of 5.32. For the same compound, the inhibition [14] was 91.9%, the pIC50 (NCI-H226 [15]) was 5.53 and the inhibition at 10 µM (NCI-H520 [5]) was 60.5%. It also gave an inhibition [16] of 70.3%, a pIC50 [17] of 6.76 and an inhibition [18] of 89.7%. It also gave a pIC50 (HCC827 [19]) of 4.73, an inhibition [20] of 79.2% and an inhibition at 10 µM (NCI-H1581 [7]) of 65%.
For `COc1cc(NC(=O)Nc2cc(Nc3cc(I)ccc3OC)ncn2)cc(OC)c1`, the inhibition at 10 µM (NCI-H226 [1]) was 56.7%, the pIC50 (PC-9 [9]) was 5.45 and the inhibition at 10 µM (PC-9 [2]) was 91%. It also gave an inhibition at 10 µM (HCC827 [3]) of 71%, a pIC50 (NCI-H520 [11]) of 5.01 and a pIC50 (NCI-H1581 [13]) of 5.05. For the same compound, the inhibition [14] was 74%, the pIC50 (NCI-H226 [15]) was 4.71 and the inhibition at 10 µM (NCI-H520 [5]) was 55%. It also gave an inhibition [16] of -2.1%, an inhibition [18] of 60.2% and a pIC50 (HCC827 [19]) of less than 4.70. The inhibition [20] was 58.7% and the inhibition at 10 µM (NCI-H1581 [7]) was 59%.
Compound `COc1cc(NC(=O)Nc2cc(Nc3cc(OC)ccc3OC)ncn2)cc(OC)c1` has an inhibition at 10 µM (NCI-H226 [1]) of 41.1%, a pIC50 (PC-9 [9]) of 5.23 and an inhibition at 10 µM (PC-9 [2]) of 59.5%. For the same compound, the inhibition at 10 µM (HCC827 [3]) was 63%, the pIC50 (NCI-H520 [11]) was 5.12 and the pIC50 (NCI-H1581 [13]) was 5.08. It also gave an inhibition [14] of 60%, a pIC50 (NCI-H226 [15]) of 5.13 and an inhibition at 10 µM (NCI-H520 [5]) of 34%. The inhibition [16] was 3.4%, the inhibition [18] was 65.7% and the pIC50 (HCC827 [19]) was 5.49. It also gave an inhibition [20] of 63.3% and an inhibition at 10 µM (NCI-H1581 [7]) of 40.7%.
Compound `COc1cc(NC(=O)Nc2cc(Nc3cc(C(F)(F)F)ccc3OC)ncn2)cc(OC)c1` has an inhibition at 10 µM (NCI-H226 [1]) of 60%, a pIC50 (PC-9 [9]) of 5.21 and an inhibition at 10 µM (PC-9 [2]) of 81.1%. For the same compound, the inhibition at 10 µM (HCC827 [3]) was 59.7%, the pIC50 (NCI-H520 [11]) was 5.35 and the pIC50 (NCI-H1581 [13]) was 5.13. It also gave an inhibition [14] of 73.1%, a pIC50 (NCI-H226 [15]) of 4.84 and an inhibition at 10 µM (NCI-H520 [5]) of 63%. It also gave an inhibition [16] of 11%, an inhibition [18] of 54.2% and a pIC50 (HCC827 [19]) of 4.82. The inhibition [20] was 74.6% and the inhibition at 10 µM (NCI-H1581 [7]) was 67%.
With `COc1cc(NC(=O)Nc2cc(Nc3cc(OC)cc(OC)c3)ncn2)cc(OC)c1` the inhibition at 10 µM (NCI-H226 [1]) was 38.3%, the pIC50 (PC-9 [9]) was 5.42 and the inhibition at 10 µM (PC-9 [2]) was 76.5%. It also gave an inhibition at 10 µM (HCC827 [3]) of 51.3%, a pIC50 (NCI-H520 [11]) of 4.96 and a pIC50 (NCI-H1581 [13]) of 5.13. It also gave an inhibition [14] of 51.7%, a pIC50 (NCI-H226 [15]) of 5.08 and an inhibition at 10 µM (NCI-H520 [5]) of 40.5%. For the same compound, the inhibition [16] was 10.6%, the inhibition [18] was 56.7% and the pIC50 (HCC827 [19]) was 5.37. It also gave an inhibition [20] of 66.2% and an inhibition at 10 µM (NCI-H1581 [7]) of 40.7%.
